Laboratory results as given in publication PMC9885526 (ACS Central Science, 2023).

System: SARS-CoV-2 (Omicron variant)
Experiment: microbe, parasite or virus in culture
Type: cell-based
Settings: Severe acute respiratory syndrome coronavirus 2, Caco-2

CC(C)(C)[C@H](NC(=O)C(F)(F)F)C(=O)N1C[C@H]2[C@@H]([C@H]1C(=O)N[C@H](C#N)C[C@@H]1CCNC1=O)C2(C)C [PF-07321332, Nirmatrelvir] showed an EC50 of 33 nM.
